# Data published in patent publication US9206165B2, “Tetrazolo hydrazine derivatives and pharmaceutical composition comprising same as active ingredient for preventing or treating cancer” (INDUSTRY-ACADEMIC COOPERATION FOUNDATION, YEUNGNAM …, priority 2012, dated 2015).
# How the values were obtained:
# [1] = tested on: MCF-7, MDA-Mb-231 and Zr-75 cell lines; experiment: In vitro anti-cancer activity in human breast cancer cell lines, MTT (statements pooled over the three lines); format: cell-based; conditions: 1×10^−5, 1×10^−6 and 1×10^−7 M, 48 h
# Experimental: (§1) Anti-cancer activities of the compounds f1-f15 on human breast cancer cell line were tested in ER positive (MCF-7) and […] cell lines. The human breast cancer cell lines MCF-7 and MDA-MB-231 were cultured in Dulbecco's Modified Eagle's Medium (DMEM) supplemented with 10% fetal bovine serum (FBS) (HyClone Laboratories, Logan, Utah, USA) and 1% penicillin: streptomycin (Invitrogen, Carlsbad, Calif., USA) in 12 well plates. The test compounds f1-f15 were dissolved in DMSO and one microliter of the stock solution was used per milliliter of the culture to make a working concentration1 1×10^−5, 1×10^−6 and 1×10^−7 M. Each test includes control wells. The cell suspension was diluted to 1×10^4 cells/mL by adding fresh medium, and 1 mL of this suspension was added to the test and control wells. The plates were incubated at 37° C. under CO2 for 24 h. After incubation, the culture media was changed and cells were treated with […] of stock solution. Cells were incubated at 37° C. under CO2 for 48 h. The growth of the cells was checked with a low power microscope and MTT assay was used to confirm the viability. In the similar experiments, the ZR-75 cells were grown in RPMI 1640 (HyClone Laboratories, Logan, Utah, USA) supplemented with 10% fetal bovine serum (FBS) (HyClone Laboratories, Logan, Utah, USA) and 1% penicillin: streptomycin (Invitrogen, Carlsbad, Calif., USA).
# (§2) The results for each compound are reported as percent growth (GP %) of treated cells compared to untreated controls. The inhibitory effects were detectable in compounds 2, 8, 10, 12 and 14 among the compounds f1-f15. […] The percent growth inhibition of compounds varied not only with the substituent groups but also with the nature of the cell line.
# [2] = tested on: breast cancer marker genes in MCF-7 cells; experiment: Gene expression analysis by real time RT-PCR in MCF-7 cells; format: cell-based, human; conditions: mRNA
# Experimental: (§3) To investigate the various effects of various cell lines, the expression levels of different breast cancer marker genes were tested after treating the compounds.
# (§4) Total RNA was extracted from the cells using Trizol™ reagent, stored in diethylpyrocarbonate-treated water at −80° C. until use. Total 2 μg of RNA was used for cDNA synthesis. All the primer used in examples of the present invention were designed with Primer 3 software (http://frodo.wi.mit.edu) using sequence information listed at NCBI. Following conditions were applied for the RT-PCR: pre-denaturation of the synthesized cDNA at 95° C. for 10 min followed by 40 cycles of denaturation at 95° C. for 33 s, annealing at each gene-specific primer Tm (° C.), and extension at 72° C. for 33 s. 1.2% of the agarose gel electrophoresis were used to verify the purity of the amplified genes.
# [3] = tested on: breast cancer marker genes in MDA-MB-231 cells; experiment: Gene expression analysis by real time RT-PCR in MDA-MB-231 cells; format: cell-based, human; conditions: mRNA
# Experimental: as §3, §4
# [4] = tested on: MDA-MB-231 cell line; experiment: In vitro anti-cancer activity, MTT, MDA-MB-231; format: cell-based, human; conditions: ER negative MDA-MB-231; FIG. 2
# Experimental: as §1, with “In the similar experiments, the ZR-75 cells were grown in RPMI 1640 (HyClone Laboratories, Logan, Utah, USA) supplemented with 10% fetal bovine serum (FBS) (HyClone Laboratories, Logan, Utah, USA) and 1% penicillin: streptomycin (Invitrogen, Carlsbad, Calif., USA).” left out
# [5] = tested on: ZR-75 cell line; experiment: In vitro anti-cancer activity, MTT, ZR-75; format: cell-based, human; conditions: ER negative ZR-75; FIG. 2
# Experimental: as §1, with “In the similar experiments, the ZR-75 cells were grown in RPMI 1640 (HyClone Laboratories, Logan, Utah, USA) supplemented with 10% fetal bovine serum (FBS) (HyClone Laboratories, Logan, Utah, USA) and 1% penicillin: streptomycin (Invitrogen, Carlsbad, Calif., USA).” left out
# [6] = tested on: MCF-7 cells; experiment: In vitro anti-cancer activity, MTT, MCF-7; format: cell-based, human; conditions: ER positive MCF-7; FIG. 2
# Experimental: as §1, §2
SMILES,melting point,anti-proliferative activity / inhibitory effects ([1]; FIG. 2),expression of BAX ([2]; FIG. 3),expression of CD44 ([2]; FIG. 3),expression of BRAC-1 ([3]; FIG. 4),further results
"O=C(Cn1nnnc1-c1ccc2c(c1)OCO2)NN=Cc1ccc(Cl)cc1 [f1, 2-[5-(1,3-benzodioxol-5-yl)-1H-tetrazol-1-yl]-N′-[4-chlorophenyl-methylidene]acetohydrazide]",206 to 208 °C,,,,,
"O=C(Cn1nnnc1-c1ccc2c(c1)OCO2)NN=Cc1ccccc1Cl [f2, 2-[5-(1,3-benzodioxol-5-yl)-1H-tetrazol-1-yl]-N′-[(2-chlorophenyl)methylidene]acetohydrazide]",198 to 200 °C,excellent anti-proliferative activity,increased more than two fold,increased,a minimum of two folds decrease,"anti-proliferative activity / inhibitory effects ([1]; FIG. 2, listed as 2): detectable"
"CCOc1ccc(C=NNC(=O)Cn2nnnc2-c2ccc3c(c2)OCO3)cc1 [f3, 2-[5-(1,3-benzodioxol-5-yl)-1H-tetrazol-1-yl]-N′-[(4-ethoxyphenyl)methylidene]acetohydrazide]",208 to 210 °C,,,,,
"COc1ccc(C=NNC(=O)Cn2nnnc2-c2ccc3c(c2)OCO3)cc1 [f4, 2-[5-(1,3-benzodioxol-5-yl)-1H-tetrazol-1-yl]-N′-[(4-methoxyphenyl)methylidene]acetohydrazide]",198 to 200 °C,,,,,
"O=C(Cn1nnnc1-c1ccc2c(c1)OCO2)NN=Cc1ccccc1 [f5, 2-[5-(1,3-benzodioxol-5-yl)-1H-tetrazol-1yl]-N′-[phenylmethylidene]acetohydrazide]",204 to 206 °C,,,,,
"Cc1ccc(C=NNC(=O)Cn2nnnc2-c2ccc3c(c2)OCO3)cc1 [f6, 2-[5-(1,3-benzodioxol-5-yl)-1H-tetrazol-1-yl]-N′-[(4-methylphenyl)methylidene]acetohydrazide]",203 to 205 °C,,,,,
"CCOc1ccccc1C=NNC(=O)Cn1nnnc1-c1ccc2c(c1)OCO2 [f7, 2-[5-(1,3-benzodioxol-5-yl)-1H-tetrazol-1-yl]-N′-[(2-ethoxyphenyl)methylidene]acetohydrazide]",196 to 198 °C,,,,,
"COc1ccc(C=NNC(=O)Cn2nnnc2-c2ccc3c(c2)OCO3)cc1OC [f8, 2-[5-(1,3-benzodioxol-5-yl)-1H-tetrazol-1-yl]-N′-[(3,4-dimethoxyphenyl)methylidene]acetohydrazide]",200 to 202 °C,excellent anti-proliferative activity,increased more than two fold,increased,a minimum of two folds decrease,"anti-proliferative effects in MDA-MB-231 [4]: more anti-proliferative effects; anti-proliferative activity / inhibitory effects ([1]; FIG. 2, listed as 8): detectable; expression of CD44 ([2]; FIG. 3, listed as 8): increased about two fold; anti-proliferative effects in ZR-75 [5]: more anti-proliferative effects; expression of BRAC-1 ([3]; FIG. 4, listed as 8): highly suppressed"
"O=C(Cn1nnnc1-c1ccc2c(c1)OCO2)NN=Cc1ccccc1[N+](=O)[O-] [f10, 2-[5-(1,3-benzodioxol-5-yl)-1H-tetrazol-1yl]-N′-[(2-nitrophenyl)methylidene]acetohydrazide]",210 to 212 °C,excellent anti-proliferative activity,increased more than two fold,increased,a minimum of two folds decrease,"anti-proliferative activity / inhibitory effects ([1]; FIG. 2, listed as 10): detectable; expression of CD44 ([2]; FIG. 3, listed as 10): increased about two fold; anti-proliferative effects on MCF-7 cells growth [6]: more anti-proliferative effects"
"CCc1ccc(C=NNC(=O)Cn2nnnc2-c2ccc3c(c2)OCO3)cc1 [f11, 2-[5-(1,3-benzodioxol-5-yl)-1H-tetrazol-1-yl]-N′-[(4-ethylphenyl)methylidene]acetohydrazide]",200 to 202 °C,,,,,
"O=C(Cn1nnnc1-c1ccc2c(c1)OCO2)NN=Cc1cccc([N+](=O)[O-])c1 [f12, 2-[5-(1,3-benzodioxol-5-yl)-1H-tetrazol-1yl]-N′-[(3-nitrophenyl)methylidene]acetohydrazide]",208 to 210 °C,excellent anti-proliferative activity,increased more than two fold,increased,a minimum of two folds decrease,"anti-proliferative activity / inhibitory effects ([1]; FIG. 2, listed as 12): detectable; anti-proliferative effects on MCF-7 cells growth [6]: more anti-proliferative effects"
"O=C(Cn1nnnc1-c1ccc2c(c1)OCO2)NN=Cc1ccco1 [f13, 2-[5-(1,3-benzodioxol-5-yl)-1H-tetrazol-1-yl]-N′-[furan-2-ylmethylidene]acetohydrazide]",212 to 214 °C,,,,,
"O=C(Cn1nnnc1-c1ccc2c(c1)OCO2)N/N=C/c1ccc([N+](=O)[O-])cc1 [f14, 2-[5-(1,3-benzodioxol-5-yl)-1H-tetrazol-1-yl]-N′-[(E)-(4-nitrophenyl)methylidene]acetohydrazide]",204 to 206 °C,excellent anti-proliferative activity,increased more than two fold,increased,a minimum of two folds decrease,"anti-proliferative activity / inhibitory effects ([1]; FIG. 2, listed as 14): detectable; anti-proliferative effects on MCF-7 cells growth [6]: more anti-proliferative effects"
